Assay results from patent US20250249012A1, “COMPOSITIONS AND METHODS FOR TREATING AND/OR PREVENTING A VIRAL INFECTION” (priority 2022, published 2025).
Structures can show the parent of a compound that is named as a salt. Where two headings read alike, the source gives them in different places.

Legend:
[1] = Pharmacokinetics in plasma; format: in vivo
[2] = Solubility of Apilimod and Nafamostat in different vehicles (visible precipitate); format: physicochemical; details: for precipitate in solution: 1 mg/ml Apilimod di-mesylate, 2 mg/ml Nafamostat mesylate, 12 hours at room temperature, also seen after centrifugation; for solubility in deionized water: mixed and dissolved in deionized (MilliQ) water; for solubility in solutions containing salt: phosphate buffer saline (PBS) or DMEM cell culture medium, particularly when together
Text: FIGS. 1A-1B show the solubility of Apilimod and Nafamostat in different vehicles. […] Magnified images of the boxed areas are shown on the right panels.
This is the reason why our drug mixtures were made in deionized (MilliQ) water as stocks and for intranasal administration. While the mouse nose tolerates exposure to deionized (MilliQ) water, for humans it may be necessary to adjust the osmolarity of the solution, for example by adding sucrose.

[3] = tested on: A549-ACE2-TMPRSS2GFP cells; details: 20 hours post infection
Vero-E6 cells = details: 20 hours post infection

Compound	half-life in plasma [1]	precipitate in solution ([2]; in DMEM)	precipitate in solution ([2]; in PBS)	solubility in deionized water [2]	solubility in solutions containing salt [2]	number of cells, normalized to vehicle-treated infected cells ([3]; drug stock prepared in DMEM)	number of cells, normalized to vehicle-treated infected cells ([3]; drug stock prepared in PBS)	number of cells, normalized to vehicle-treated infected cells (Vero-E6 cells; drug stock prepared in DMEM)	number of cells, normalized to vehicle-treated infected cells (Vero-E6 cells; drug stock prepared in PBS)
N=C(N)c1ccc2cc(OC(=O)c3ccc(N=C(N)N)cc3)ccc2c1 [Nafamostat mesylate]	relatively short half-life times (minutes)	a precipitate is observable	a precipitate is observable	substantially increased	relatively insoluble and precipitate	Significant loss of cells	Significant loss of cells	–	–
N-[(E)-(3-methylphenyl)methylidencamino]-6-morpholin-4-yl-2-(2-pyridin-2-ylethoxy)pyrimidin-4-amine [Apilimod dimesylate]	relatively short half-life times (minutes)	a precipitate is observable	a precipitate is observable	substantially increased	relatively insoluble and precipitate	–	–	Significant loss of cells	Significant loss of cells
